Reference: PMC7429848, “XJB-5-131 inhibited ferroptosis in tubular epithelial cells after ischemia−reperfusion injury” (Cell Death & Disease, 2020)

Experiments:
[1] = In vivo-based pharmacokinetic model, LC-MS/MS of plasma and tissue homogenates; design: species or system mice; conditions: for AUC0–6 h / AUC0–∞ / MRT0-6h / MRT0–∞ / t1/2 / tmax / Cmax: 3 mg/kg i.v. bolus
Procedure: (§1) The mice were sacrificed at 0.25, 0.5, 1, 2, 4 and 6 h after i.v. bolus administration of XJB-5-131. […] The concentration of XJB-5-131 in the liver was not obtained. The half-life (t1/2) was approximately 2 h. The area under the concentration–time curve (AUC0−6 h) of plasma was 322.7 µg·h/ml. The AUC0−6 h in the kidney was approximately […] compared with that of the AUC0−6 h in the brain (234.7 µg·h/g versus 4.1 µg·h/g). […] Moreover, the concentration in the kidney was almost close to the plasma concentration and lasted much longer, which predicted the therapeutic value of XJB-5-131 in kidney diseases. Next, we intravenously injected 3 mg/kg BODIPY-FL-XJB-5-131 into mice to explore the distribution of XJB-5-131 in the kidney, and whole-body fluorescence was analyzed at 0 and 30 min after injection.
Mice were injected with 3 mg/kg XJB-5-131 and were sacrificed at 0.25, 0.5, 1, 2, 4 and 6 h after injection. Plasma, kidney, liver and brain were collected to assess the XJB-5-131 concentration by LC-MS/MS. For plasma samples, an aliquot of 8 µL was protein precipitated with 160 µL IS, and the mixture was vortex-mixed and centrifuged at 12,000 × g for 15 min at 4 °C. Seventy microliters of supernatant was transferred to a 96-well plate and centrifuged for 5 min at 3220 × g and 4 °C, and then 6 µL of supernatant was directly injected for LC-MS/MS analysis. For tissue samples, tissue homogenates (kidney, brain and liver) were prepared by homogenizing tissue with threefold volume of homogenization solution (MeOH/15 mM PBS = 1:2). An aliquot of 20 µL was protein precipitated with 400 µL IS, and the mixture was vortex-mixed and centrifuged at 12,000 rpm for 15 min at 4 °C. Seventy microliters of supernatant was transferred to a 96-well plate and centrifuged for 5 min at 3220 × g and 4 °C, and then 6 µL of supernatant was directly injected for LC-MS/MS analysis.

renal I/R injury [2] = assay: Renal I/R model: kidney injury and TEC repair (gross appearance, PAS, KIM-1, Ki67, Sox9); assay type: in vivo; conditions: mice
Procedure: (§2) After a minimum of 7 days of acclimation, the mice were anesthetized with a 1% sodium pentobarbital solution (6 mL/kg) by intraperitoneal injection and then placed in a prone position to maintain their body temperature at 36.8–37.2 °C during surgery. After a unilateral dorsal incision to expose the kidneys, the renal artery was occluded using a microvascular clamp (RoBoz Surgical Instrument Co, Gaithersburg, MD, USA) for 30 min. After that, the clamps were removed, and the animals were allowed to recover with free access to food and water.
(§3) To study the effects of XJB-5-131 on I/R injury, the mice were randomly allocated into the Vehi group and XJB group. The mice were injected intraperitoneally (i.p.) with XJB-5-131 (10 mg/kg) or the respective control 30 min prior to ischemia and for 3 consecutive days after surgery.
Paraffin-embedded renal sections (4 μm) were subjected to PAS staining to detect morphological changes in the cortex and medulla, and were scored in a blinded fashion using a semiquantitative design as previously reported.
(§4) Paraffin-embedded renal sections (4 μm) were deparaffinized in xylene, rehydrated in graded alcohol and blocked with 10% goat serum for 30 min. Mouse monoclonal anti-GSDMD (1:50, Santa), mouse monoclonal anti-4-HNE (1:100, R&D), rabbit polyclonal anti-MLKL, goat polyclonal anti-KIM-1 (1:800, R&D), rabbit polyclonal anti-Ki67 (1:100, Abcam), rabbit polyclonal anti-ACSL4 (1:200, Abcam), rabbit polyclonal anti-CD3 (1:100, Dako), rabbit polyclonal anti-ly6G (1:100, Abcam), rat polyclonal anti-F4/80 (1:50, Abcam), and rabbit polyclonal anti-Sox9 (1:100, Abcam) primary antibodies were incubated at 4 °C overnight and subsequently visualized with HRP-conjugated secondary antibody for IHC and fluorescently labeled secondary antibodies for IF. Staining was carefully quantified in each slide by capturing 15 randomly chosen fields in a blind manner, and the data were analyzed using Image Pro Plus software (Media Cybernetics, USA).

HT-1080 cells = test system: HT-1080 cells; design: method as in PMID 27725964; conditions: cited from earlier work
[3] = design: method as in PMID 26415224; conditions: cited from earlier work
RIPK3, MLKL, GSDMD = assay: Renal I/R model: necroptosis and pyroptosis markers by western blot; assay type: in vivo; conditions: mice, unilateral I/R, with or without XJB-5-131
Procedure: as §2, §3
(§5) Renal tissues were lysed in RIPA lysis buffer containing protease inhibitor. Equal amounts of proteins (50 μg) were loaded and separated by 10% SDS-PAGE. The proteins were transferred onto polyvinylidene fluoride membranes (Millipore, USA). The membranes were blocked with 5% skimmed milk in Tris Buffered saline Tween (TBST) for 1 h at room temperature and were then incubated with appropriate primary antibodies against GPX4 (1:10000, Abcam), ACSL4 (1:10000, Abcam, UK), MLKL (1:1000, Abgent), p-MLKL (1:1000, Abcam), RIPK3 (1:1000, ABclonal), p-RIPK3 (1:1000, Abcam), GSDMD (1:1000, Santa) and GAPDH (1:5000, ABclonal) at 4 °C overnight. The blots were washed with TBST for 5 min and incubated with HRP-conjugated secondary antibodies (1:5000; ABclonal) for 1 h. After washing with TBST, the blots were visualized by the enhanced chemiluminescence method (ECL, Bio-Rad). The relative intensity of the target band was normalized to the corresponding loading control intensity and quantified by using ImageJ (NIH, USA).

ferroptosis in TECs = assay: Renal I/R model: ferroptosis readouts (mitochondrial morphology, GSH-Px, MDA, 4-HNE, GPX4, ACSL4); assay type: in vivo; conditions: mice, unilateral I/R, 10 mg/kg i.p.
Procedure: as §2, §3
The renal cortices were cut into small pieces (1 mm^3) and fixed with 2.5% glutaraldehyde. Then the samples were dehydrated and embedded. Ultra-thin sections were stained and observed with a transmission electron microscope (Tecnai G^2 20 TWIN, FEI, USA).
as §4
The levels of GSH-Px in kidneys were determined using GSH-Px assay kit, respectively (Beyotime China) in line with the manufacturer’s instructions.
Quantification of MDA levels in kidney tissue after I/R or sham operation was performed by using an MDA assay kit (Beyotime).
as §5

[4] = Whole-body and organ fluorescence imaging and kidney frozen sections after BODIPY-FL-XJB-5-131 injection; assay type: in vivo; conditions: mice, BODIPY-FL-labeled XJB-5-131 i.v.
Procedure: as §1
Fig. 5 Pharmacokinetics and distribution analysis of XJB-5-131 in vivo and in vitro. a The structure of XJB-5-131. b The tissue concentrations of XJB-5-131 in mice. Mice were injected with XJB-5-131 and sacrificed after 0.25, 0.5, 1, 2, 4 and 6 h. Plasma, kidney, liver and brain were collected for in vivo-based pharmacokinetic assays by LC-MS/MS. […] Whole-body fluorescence imaging was performed at 0 and 30 min, and the fluorescence intensity of various organs (heart, kidney, liver and brain) was measured after 30 min. […]

renal I/R injury [5] = assay: Renal I/R model: intrarenal inflammatory cell infiltration and proinflammatory cytokine mRNA; assay type: in vivo; conditions: mice, unilateral I/R, 10 mg/kg i.p., vs I/R group
Procedure: as §2, §3, §4
Total RNA was extracted from kidney tissue using TRIzol reagent (Takara, Japan). Real-time PCR was carried out using a LightCycler 480 system (Roche, Pleasanton, CA, USA). Relative mRNA for RANTES, MCP-1, IL-6 and GAPDH was quantified in triplicate by SYBR Green RT-PCR.

[6] = stated without reference; cited from earlier work
[7] = unilateral I/R, 10 mg/kg i.p., day 3, vs I/R group

In the case of CC(C)C[C@@H](/C=C/[C@H](Cc1ccccc1)C(=O)N1CCC[C@H]1C(=O)N[C@H](C(=O)N[C@@H](CCCNC(=O)OCc1ccccc1)C(=O)NC1CC(C)(C)N([O])C(C)(C)C1)C(C)C)NC(=O)OC(C)(C)C [XJB-5-131], the “AUC0–6 h” value ([1]; mice, brain) is reported as 4052 ng·h/g, the “AUC0–∞” value ([1]; mice, brain) is reported as 4859 ng·h/g and the MRT0-6h ([1]; mice, brain) is reported as 3.14 h. For the same compound, the “MRT0–∞” value ([1]; mice, brain) was 1.98 h, the t1/2 ([1]; mice, brain) was 2.07 h and the tmax ([1]; mice, brain) was 0.25 h. For the same compound, the Cmax ([1]; mice, brain and plasma) was 2353 ng/g, the “AUC0–6 h” value ([1]; mice, kidney) was 234,683 ng·h/g and the “AUC0–∞” value ([1]; mice, kidney) was 255,150 ng·h/g. For the same compound, the Cmax ([1]; mice, kidney) was 261,067 ng/g, the MRT0-6h ([1]; mice, kidney) was 2.05 h and the “MRT0–∞” value ([1]; mice, kidney) was 1.42 h. For the same compound, the t1/2 ([1]; mice, kidney) was 2.23 h, the tmax ([1]; mice, kidney) was 0.25 h and the “AUC0–6 h” value ([1]; mice, plasma) was 322,745 ng·h/mL. The “AUC0–∞” value ([1]; mice, plasma) was 364,783 ng·h/mL, the Cmax ([1]; mice, plasma) was 186,667 ng/mL and the MRT0-6h ([1]; mice, plasma) was 2.65 h. For the same compound, the t1/2 ([1]; mice, plasma) was 1.77 h, the tmax ([1]; mice, plasma) was 0.25 h and the “half-life (t1/2)” value ([1]; mice, i.v.) was “approximately 2 h”. For the same compound, the plasma-tissue drug transfer ([1]; mice, i.v.) was “fast”, the plasma stability ([1]; mice, i.v., in vivo PK) was “superior plasma stability” and the “AUC0−6 h” value ([1]; mice, i.v., kidney) was 234.7 µg·h/g. The “calculated maximal concentration (Cmax)” value ([1]; mice, i.v., kidney) was 261.1 µg/g, the “AUC0−6 h” value ([1]; mice, i.v., kidney and brain) was 4.1 µg·h/g and the “AUC0−6 h” value ([1]; mice, i.v., plasma) was 322.7 µg·h/mL. For the same compound, the “calculated maximal concentration (Cmax)” value ([1]; mice, i.v., plasma) was 186.7 µg/mL, the “time of Cmax after vein injection” value ([1]; mice, i.v., plasma, kidney and brain) was 15 min and the “stability in liver homogenate” value ([1]; mouse liver homogenate, not detected by LC-MS/MS) was “unstable”. For the same compound, the “benefit at 10mg/kg versus 2.5mg/kg or 20mg/kg” value (renal I/R injury [2]; I/R, day 3, PAS staining) was “better beneficial than other doses”, the “kidney injuries and casts (PAS staining)” value (renal I/R injury [2]; I/R, day 3, vs I/R+Vehicle) was “ameliorated” and the “KIM-1 expression (immunofluorescent staining)” value (renal I/R injury [2]; [7]) was “decreased”. For the same compound, the “Sox9 in TECs” value (renal I/R injury [2]; [7]) was “dramatically activated”, the “congestion area at the junction of cortex and medulla” value (renal I/R injury [2]; [7]) was “reduced” and the “loss of tubules (PAS tubular damage)” value (renal I/R injury [2]; [7]) was “alleviated”. For the same compound, the “number of Ki67-positive nuclei in TECs” value (renal I/R injury [2]; [7]) was “much higher number”, the “ratio of injured kidney weight to body weight” value (renal I/R injury [2]; [7]) was “decreased” and the effect on ferroptosis (HT-1080 cells) was “anti-ferroptotic effects”. The “conversion into XJB-hydroxylamine in situ” value [3] was “easily converted into XJB-hydroxylamine”, the “cleavage of GSDMD (GSDMD-N)” value (RIPK3, MLKL, GSDMD) was “no statistically significant difference” and the “expression of phosphorylated MLKL” value (RIPK3, MLKL, GSDMD) was “no difference”. The “expression of phosphorylated RIPK3” value (RIPK3, MLKL, GSDMD) was “no difference”, the 4-HNE staining (ferroptosis in TECs) was “less accumulation of lipid peroxidation” and the “I/R-induced increase in ACSL4 expression (western blot)” value (ferroptosis in TECs) was “inhibited”. The “renal GPX4 expression (western blot)” value (ferroptosis in TECs) was “significantly improved”, the “resistance of mitochondria in TECs to I/R injury (electron microscopy)” value (ferroptosis in TECs) was “increased resistance” and the “GSH-Px level in kidney” value (ferroptosis in TECs; day 3) was “increased levels”. The “MDA level in kidney” value (ferroptosis in TECs; day 3) was “decreased levels”, the “cell type distribution in the kidney (fluorescence microscopy of frozen sections)” value [4] was “majority of XJB-5-131-positive cells were kidney TECs” and the “IL-6 mRNA expression in kidney” value (renal I/R injury [5]) was “suppressed”. The “MCP-1 mRNA expression in kidney” value (renal I/R injury [5]) was “suppressed”, the “RANTES mRNA expression in kidney” value (renal I/R injury [5]) was “suppressed” and the “infiltration of inflammatory cells in the kidney (ly6G, CD3, F4/80 positive cells)” value (renal I/R injury [5]) was “reduced”.
For CCOC(=O)c1ccc(NC2CCCCC2)c(N)c1 [Fer-1, ferrostatin-1], the stability in plasma [6] is listed as “poor”.
